Laboratory results: article PMC10328743, “5-Nitro-3-(2-(4-phenylthiazol-2-yl)hydrazineylidene)indolin-2-one derivatives inhibit HIV-1 replication by a multitarget mechanism of action” (Frontiers in Cellular and Infection Microbiology, 2023)

Legend:
[1] = Viability of infected MT4 cells (cytotoxicity); type: cell-based; conditions: human, MT4 cells infected with HIV-1; infected MT4 cells viability; three independent experiments, average ± standard deviation
Description: (§1) HIV-1 replication was carried out in MT4 cells as previously reported ([Corona et al., 2016a]) using a molecular clone derived from the pNL4-3 ([Thierry et al., 2015]). A total of 120 ng of p24^gag antigen per 10^6 cells, corresponding to a multiplicity of infection (m.o.i.) of 0.3, was used for infection. […] Flow cytometry analysis was performed on a FACSCalibur flow cytometer (BD Biosciences, San Jose, CA, USA), and the results were analyzed using the […] software.

[2] = tested on: MT4 cells; assay: Viability of infected MT4 cells (cytotoxicity); type: cell-based; conditions: no toxicity up to the highest concentration tested
Description: as §1

[3] = biological target: T1, HIV-1 IN-LEDGF binding (Human immunodeficiency virus type 1 group M subtype B, UniProt P12497); assay: biochemical
T1 construct: Preparation of recombinant full-length IN and LEDGF proteins; made in house; host or cells: E. coli BL21(DE3)
Description: Proteins were expressed in E. coli BL21(DE3). Briefly, His-IN was purified by loading the precipitate of cell lysate onto a Ni-Sepharose column and eluting with a […] imidazole gradient (0–500 mM) in a HEPES buffer (50 mM, pH 7.5) containing NaCl (1 M), CHAPS (7.5 mM), and β-mercaptoethanol (2 mM). FLAG-IN was purified by loading the precipitate of cell lysate onto a phenyl-sepharose and ammonium sulfate gradient (0–800 mM) in a HEPES (pH 7.5, 50 mM) buffer containing NaCl (200 mM), CHAPS (7.5 mM), and β-mercaptoethanol (2 mM). Peak fractions were pooled, loaded onto a heparin column, and eluted with an increasing NaCl gradient (200 mM to 1 M) in a HEPES (pH 7.5, 50 mM) buffer containing CHAPS (7.5 mm) and β-mercaptoethanol (2 mM). Fractions containing integrase were pooled and stored in glycerol (10%) at −80°C.
Briefly, His-IN was preincubated with different concentrations of a compound in a buffer containing NaCl (150 mm), MgCl2 (2 mM), Nonidet P-40 (0.1%), BSA (1 mg/ml), and Tris (pH 7.4, 25 mm) for 30 min at room temperature. Then, FLAG-LEDGF was added to the reaction mixture, and a mixture of anti-His6-XL665 and anti-FLAG-EuCryptate antibodies was added.

SMILES | CC50 [1] [µM] | toxicity against MT4 cells [2] [µM] | IC50 [3] [µM] | IC50 IN/LEDGF binding [3]
Cc1ccc(-c2csc(N/N=C3\C(=O)Nc4ccc([N+](=O)[O-])cc43)n2)cc1 [10a] | > 100 | > 100 | > 100 | without interfering with the binding of LEDGF
O=C1Nc2ccc(Cl)cc2/C1=N/Nc1nc(-c2ccc(Cl)c(Cl)c2)cs1 [9b] | > 100 | > 100 | > 100 | –
